The experiment deals with BodoOBP8 (Bradysia odoriphaga, UniProt A0A2S0X9G3). Briefly: Fluorescence competitive binding assay (1-NPN probe) with recombinant BodoOBP8. The method, then:
For the binding assays, all test ligands (Table S1) were dissolved in methanol, and N-phenyl-1-naphthylamine (1-NPN) was used as a fluorescent probe.

The mark [1] stands for this setting: recombinant BodoOBP8, calculated from IC50 of 1-NPN displacement, read-out: Ki.
[2] abbreviates: recombinant BodoOBP8, displacement of 1-NPN, read-out: IC50.
Where [3] appears, read: Ki, recombinant BodoOBP8, calculated from IC50 of 1-NPN displacement.
The mark [4] stands for this setting: pH 7.4, Figure 3B, read-out: Ki.

The source of these data is paper PMC8539145, “Function and Characterization Analysis of BodoOBP8 from Bradysia odoriphaga (Diptera: Sciaridae) in the Recognition of Plant Volatiles and Sex Pheromones” (Insects, 2021).

pIC50, pKd, pKi: −log10 of the molar value. “And” between values parts separate entries of the source, which are not always exact repeats. Identical values can stand only once. Like-named read-outs stand apart in the source and are kept apart here. Where only a bound is given, the exact number is not on record here.

Chain of BodoOBP8 (A0A2S0X9G3 entry or part of it): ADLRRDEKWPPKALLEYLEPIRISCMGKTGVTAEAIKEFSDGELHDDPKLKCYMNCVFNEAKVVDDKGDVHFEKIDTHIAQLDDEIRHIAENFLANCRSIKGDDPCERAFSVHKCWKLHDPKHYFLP

As to `C/C1=C\CC/C(C)=C/CC(C)(C)/C=C/C1` [α-Humulene], the pKi under setting [1] is below 4.30. Besides, under setting [2], the pIC50 is below 4.30.
With `COC(=O)c1ccccc1O` [Methyl salicylate], the pIC50 is below 4.30. In addition, the negative-log Ki (pKi) under setting [3] is below 4.30.
Turning to `CCCCCCCCCCCCCCCC` [Hexadecane], the pKi under setting [1] is below 4.30. The pIC50 under setting [2] is below 4.30.
For `CC(=O)/C=C/C1=C(C)CCCC1(C)C` [ß-Ionone], the negative-log Ki (pKi) under setting [1] was below 4.30. The pIC50 under setting [2] was below 4.30.
For `C=C1CCC2CC1C2(C)C` (stereo not drawn) [ß-pinene], under setting [1], the pKi was below 4.30. Besides, under setting [2], the pIC50 was below 4.30.
On to `c1ccc2[nH]ccc2c1` [(H-11)Indole, Indole], for which the pIC50 was below 4.30. For the same compound, the pKi under setting [3] was below 4.30.
On to `CCCCCCCCC` [Nonane], for which, under setting [1], the pKi is below 4.30. Further, the pIC50 under setting [2] is below 4.30.
For `CCCCCCCCC=O` [Nonanal], the pKi under setting [1] is below 4.30. The pIC50 under setting [2] is below 4.30.
For `CCCCCCCCCCCC=O` [Dodecyl aldehyde], the pKi under setting [1] is below 4.30. The pIC50 under setting [2] is below 4.30.
Turning to `COC(=O)Cc1ccccc1` [Methyl phenylacetate], the negative logarithm of the IC50 (pIC50) is below 4.30. Further, under setting [3], the negative-log Ki (pKi) is below 4.30.
As to `CCCCCCCC=O` [Octanal], the pKi under setting [1] is below 4.30. Also, the negative logarithm of the IC50 (pIC50) under setting [2] is below 4.30.
Consider `CC12CCC(CC1)C(C)(C)O2` [1,8-Cineole], for which the negative logarithm of the Ki (pKi) under setting [1] is below 4.30. Further, the pIC50 under setting [2] was below 4.30.
As to `C=C(C)[C@H]1CC=C(C)CC1` [(R)-(+)-Limonene], the negative logarithm of the Ki (pKi) under setting [1] was below 4.30. The pIC50 under setting [2] was below 4.30.
Consider `C=C1CC/C=C(/C)CC[C@@H]2[C@@H]1CC2(C)C` [ß-caryophyllene], for which the pKi under setting [1] is below 4.30. The negative-log IC50 (pIC50) under setting [2] was below 4.30.
For the compound `CCCCCCC=O` [Heptanal], the pKi under setting [1] is below 4.30. The pIC50 under setting [2] was below 4.30.
Take `CCCCOC(=O)CCC(C)=O` [Butyl levulinate]: the pKi under setting [1] is below 4.30. Also, the pIC50 under setting [2] is below 4.30.
On to `CCCCCCCCCCCC` [Dodecane], for which the pKi under setting [1] was below 4.30. For the same compound, the pIC50 under setting [2] was below 4.30.
For `c1ccc(Nc2cccc3ccccc23)cc1` [1-NPN, N-phenyl-1-naphthylamine, reference compound], the negative-log Kd (pKd) was 5.66.
`CCCCCCCCCCCCCC` [Tetradecane]: the pKi under setting [1] was below 4.30. For the same compound, under setting [2], the pIC50 was below 4.30.
On to `CC/C=C\CCO` [cis-3-Hexen-1-ol], for which the pIC50 was below 4.30. The pKi under setting [3] is below 4.30.
For the compound `C=CC(C)=CCC=C(C)C` [Ocimene], the pKi under setting [1] is below 4.30. Moreover, the pIC50 under setting [2] was below 4.30.
As to `CCCCC=O` [Valeric aldehyde], under setting [1], the negative-log Ki (pKi) was below 4.30. Further, the pIC50 under setting [2] is below 4.30.
Consider `C=CC(C)(O)CCC=C(C)C` (stereo not drawn) [Linalool], for which the pIC50 is below 4.30. For the same compound, under setting [3], the pKi is below 4.30.
Turning to `CC(C)=CCCC(C)CCO` (stereo not drawn) [Citronellol], the pKi under setting [1] is below 4.30. For the same compound, the pIC50 under setting [2] was below 4.30.
Regarding `CCCCCCCCCCCCCCCCC` [n-Heptadecane], the pKi was 5.39 under setting [4]; 5.39 and > 5.00 under setting [1]. Moreover, under setting [2], the pIC50 was 5.22.
For `C=CCSSC` [Methyl allyl disulfide], the pKi under setting [4] is 5.17. The negative logarithm of the IC50 (pIC50) under setting [2] is 5.10.
In the case of `CCCCC(C)=O` [2-Hexanone], the pIC50 was below 4.30. In addition, the pKi under setting [3] was below 4.30.
Take `CC(=O)c1ccccc1` [Acetophenone]: the negative logarithm of the Ki (pKi) under setting [1] is below 4.30. The pIC50 under setting [2] is below 4.30.
For the compound `O=Cc1ccccc1` [Benzaldehyde], the pIC50 is below 4.30. In addition, the negative-log Ki (pKi) under setting [3] was below 4.30.
`CCCCCCCCCC=O` [Decanal]: the pKi under setting [1] was below 4.30. The negative-log IC50 (pIC50) under setting [2] was below 4.30.
Take `C=CCSSCC=C` [Diallyl disulfide]: the pIC50 was 5.00. Further, for the setting “Ki, pH 7.4, Figure 3B”, the pKi was 5.39. Also, the pKi under setting [3] is 5.17. In addition, the pKi (recombinant BodoOBP8, calculated from IC50 of 1-NPN displacement) is above 5.00.
Take `Cc1ccc(C(C)C)cc1O` [Carvacrol]: the pIC50 is below 4.30. The pKi under setting [3] was below 4.30.
